The test system of assay [1] is adenine-induced renal failure rat. Description: Suppressive effect on rise in serum phosphorus concentration of adenine-induced renal failure rat (0.1% in feed, 3 days). The class given is in vivo, Wistar male rat. The following applies: feed or water, 72 h, rate of suppression of a rise in serum phosphorus concentration, 0.1% of mass concentration in feed. The source says: Test Example 5: Suppressive effect on rise in serum phosphorus concentration of adenine-induced renal failure rat Adenine was forcedly administered orally to each Wistar male rat (7-8 weeks old) to impair renal functions and thereby prepare a hyperphosphatemia model ([…], Nagano N, Burke SK, Fukushima N. Sevelamer hydrochloride prevents ectopic calcification and renal osteodystrophy in chronic renal failure rats. Kidney Int. 2003 Aug; 64 (2): 441-50). Each test compound was mixed at a ratio of 0.1% of mass concentration with feed. The animal was fed with a given amount of the feed for 3 days. A group given feed non-supplemented with a test compound was used as a reference pathological group, and an adenine-unadministered group given feed non-supplemented with a test compound was used as a normal group. 3 days after the start of administration of the test compound, blood was collected from the jugular vein, and serum was collected. Serum phosphorus concentrations were measured by the Fiske-Subbarow method. The rate of suppression of a rise in serum phosphorus concentration was determined according to the following expression: Rate (%) of suppression of a rise in serum phosphorus concentration = (1-[([…]-treatedpathologicalgroup); -(Serumphosphorusconcentrationofthenormalgroup)]/; [(Serumphosphorusconcentrationofthereferencepathologicalgroup)-(Serumphosphorusconcentrationofthenormalgroup)]) × 100 [formula] As a result, each test compound was confirmed to have a suppressive effect on a rise in serum phosphorus concentration. […]

In assay [2] the test system is rat small-intestinal brush border membrane vesicles. The experiment in a line: Inhibitory effect on 33PO4 uptake into rat small-intestinal brush border membrane vesicles (rapid filtration method). It counts as biochemical, Wistar female rat. As to conditions: 1 µM test compound; 33PO4 uptake into rat small-intestinal BBMVs, 60 seconds. In a few lines: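 33PO4 uptake into rat small-intestinal brush border membrane vesicles measured by rapid filtration. Reactions were stopped with ice-cold buffer (110 mM NaCl, 1 mM KH2PO4, 10 mM HEPES pH 7.5), filtered and washed. Vesicle-associated radioactivity was counted by liquid scintillation.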

The structures appear in SMILES notation.

For orientation: inhibition in vivo means how much of the control response was suppressed. A lower inhibition in vivo goes with a weak effect. The compound `CSc1ccc(-c2cc(Cl)ccc2NC(=O)C2=C(O)[C@H](C(C)(C)C)N(C)N(Cc3ccc(OCCN4CCOCC4)c(F)c3F)C2=O)cn1` [Example 269, (3S)-3-tert-Butyl-N-[4-chloro-2-(6-methylsulfanylpyridin-3-yl)phenyl]-1-[[2,3-difluoro-4-(2-morpholin-4-ylethoxy)phenyl]methyl]-4-hydroxy-2-methyl-6-oxo-3H-pyridazine-5-carboxamide] displayed an inhibition in vivo at 0.1 %, 0.1 % in feed in assay [1] of 15%. The “Rate of uptake inhibition (%) (1 µM)” value in assay [2] came to 80%.
On the same counts, the results for `C[C@]12CCCN1N(Cc1ccc(CN3CCOCC3)c(F)c1F)C(=O)C(C(=O)Nc1ccc(C(F)(F)F)cc1-c1ccc(C(F)(F)F)nc1)=C2O.Cl` [Example 164, (4aR)-1-[[2,3-Difluoro-4-(morpholin-4-ylmethyl)phenyl]methyl]-4-hydroxy-4a-methyl-2-oxo-N-[4-(trifluoromethyl)-2-[6-(trifluoromethyl)pyridin-3-yl]phenyl]-6,7-dihydro-5H-pyrrolo[1,2-b]pyridazine-3-carboxamide; hydrochloride] are 14% and 64%.
Consider `CN1N(Cc2ccc(OCCCCC(=O)O)c(F)c2F)C(=O)C(C(=O)Nc2ccc(C(F)(F)F)cc2-c2cc(C(F)(F)F)ncn2)=C(O)C12CCCC2` [Example 333, 5-[2,3-Difluoro-4-[[10-hydroxy-6-methyl-8-oxo-9-[[4-(trifluoromethyl)-2-[6-(trifluoromethyl)pyrimidin-4-yl]phenyl]carbamoyl]-6,7-diazaspiro[4.5]dec-9-en-7-yl]methyl]phenoxy]pentanoic acid], for which the inhibition in vivo at 0.1 %, 0.1 % in feed in assay [1] was 8%. For the same compound, in assay [2], the “Rate of uptake inhibition (%) (1 µM)” value is reported as 29%.
On the same counts, the results for `CN1[C@@H](C(C)(C)C)C(O)=C(C(=O)Nc2ccc(Cl)cc2-c2cc(C(F)(F)F)ncn2)C(=O)N1Cc1ccc(OCCN2CCOCC2)c(F)c1F` [Example 265, (3S)-3-tert-Butyl-N-[4-chloro-2-[6-(trifluoromethyl)pyrimidin-4-yl]phenyl]-1-[[2,3-difluoro-4-(2-morpholin-4-ylethoxy)phenyl]methyl]-4-hydroxy-2-methyl-6-oxo-3H-pyridazine-5-carboxamide] are 11% and 52%.
On the same counts, the results for `C[C@]12CCCN1N(Cc1ccc(OCCN3CCOCC3)c(F)c1F)C(=O)C(C(=O)Nc1ccc(C(F)(F)F)cc1-c1cc(C(F)(F)F)ncn1)=C2O` [Example 157, (4aR)-1-[[2,3-Difluoro-4-(2-morpholin-4-ylethoxy)phenyl]methyl]-4-hydroxy-4a-methyl-2-oxo-N-[4-(trifluoromethyl)-2-[6-(trifluoromethyl)pyrimidin-4-yl]phenyl]-6,7-dihydro-5H-pyrrolo[1,2-b]pyridazine-3-carboxamide] are 30% and 89%.
In assay [1], `Cc1c(C#N)ncnc1-c1cc(C(F)(F)F)ccc1NC(=O)C1=C(O)[C@@]2(C)CCCN2N(Cc2ccc(OCCN3CCOCC3)c(F)c2F)C1=O` [Example 22, (4aR)-N-[2-(6-Cyano-5-methylpyrimidin-4-yl)-4-(trifluoromethyl)phenyl]-1-[[2,3-difluoro-4-(2-morpholin-4-ylethoxy)phenyl]methyl]-4-hydroxy-4a-methyl-2-oxo-6,7-dihydro-5H-pyrrolo[1,2-b]pyridazine-3-carboxamide] returned an inhibition in vivo at 0.1 %, 0.1 % in feed of 26%. For the same compound, in assay [2], the “Rate of uptake inhibition (%) (1 µM)” value is 50%.
On the same counts, the results for `CN1N(Cc2ccc(OCCN3CCOCC3)c(F)c2F)C(=O)C(C(=O)Nc2ccc(C(F)(F)F)cc2-c2cc(C(F)(F)F)ncn2)=C(O)C12CCCC2` [Example 318, 7-[[2,3-Difluoro-4-(2-morpholin-4-ylethoxy)phenyl]methyl]-10-hydroxy-6-methyl-8-oxo-N-[4-(trifluoromethyl)-2-[6-(trifluoromethyl)pyrimidin-4-yl]phenyl]-6,7-diazaspiro[4.5]dec-9-ene-9-carboxamide] are 32% and 43%.
`C[C@]12CCCN1N(Cc1ccc(OCCCOC[C@H](O)CO)c(F)c1F)C(=O)C(C(=O)Nc1ccc(C(F)(F)F)cc1-c1ccc(C(F)(F)F)nc1)=C2O` [Example 147, (4aR)-1-[[4-[3-[(2R)-2,3-Dihydroxypropoxy]propoxy]-2,3-difluorophenyl]methyl]-4-hydroxy-4a-methyl-2-oxo-N-[4-(trifluoromethyl)-2-[6-(trifluoromethyl)pyridin-3-yl]phenyl]-6,7-dihydro-5H-pyrrolo[1,2-b]pyridazine-3-carboxamide] registered an inhibition in vivo at 0.1 %, 0.1 % in feed in assay [1] of 35%. In addition, the “Rate of uptake inhibition (%) (1 µM)” value in assay [2] is listed as 57%.
In the same order, the values of `C[C@]12CCCN1N(Cc1ccc(OCCCCCCOC[C@H](O)CO)c(F)c1F)C(=O)C(C(=O)Nc1cnc(C(F)(F)F)nc1-c1ccc(C(F)(F)F)nc1)=C2O` [Example 156, (4aR)-1-[[4-[6-[(2R)-2,3-Dihydroxypropoxy]hexoxy]-2,3-difluorophenyl]methyl]-4-hydroxy-4a-methyl-2-oxo-N-[2-(trifluoromethyl)-4-[6-(trifluoromethyl)pyridin-3-yl]pyrimidin-5-yl]-6,7-dihydro-5H-pyrrolo[1,2-b]pyridazine-3-carboxamide] are 21% and 59%.
In the same order, the values of `COCCN(C)CCOc1ccc(CN2C(=O)C(C(=O)Nc3ccc(C(F)(F)F)cc3-c3cc(C(F)(F)F)ncn3)=C(O)C3(CCC3)N2C)c(F)c1F` [Example 13, 6-[[2,3-Difluoro-4-[2-[2-methoxyethyl(methyl)amino]ethoxy]phenyl]methyl]-9-hydroxy-5-methyl-7-oxo-N-[4-(trifluoromethyl)-2-[6-(trifluoromethyl)pyrimidin-4-yl]phenyl]-5,6-diazaspiro[3.5]non-8-ene-8-carboxamide] are 25% and 58%.
In the same order, the values of `Cc1c(C#N)ncnc1-c1cc(C(F)(F)F)ccc1NC(=O)C1=C(O)[C@H](C(C)(C)C)N(C)N(Cc2ccc(OCCN3CCOCC3)c(F)c2F)C1=O` [Example 270, (3S)-3-tert-Butyl-N-[2-(6-cyano-5-methylpyrimidin-4-yl)-4-(trifluoromethyl)phenyl]-1-[[2,3-difluoro-4-(2-morpholin-4-ylethoxy)phenyl]methyl]-4-hydroxy-2-methyl-6-oxo-3H-pyridazine-5-carboxamide] are 20% and 75%.
`CN1[C@@H](C(C)(C)C)C(O)=C(C(=O)Nc2ccc(Cl)cc2-c2ccc(C(F)(F)F)nc2)C(=O)N1Cc1ccc(OCCN2CCOCC2)c(F)c1F` [Example 267, (3S)-3-tert-Butyl-N-[4-chloro-2-[6-(trifluoromethyl)pyridin-3-yl]phenyl]-1-[[2,3-difluoro-4-(2-morpholin-4-ylethoxy)phenyl]methyl]-4-hydroxy-2-methyl-6-oxo-3H-pyridazine-5-carboxamide] returned an inhibition in vivo at 0.1 %, 0.1 % in feed in assay [1] of 18%. The “Rate of uptake inhibition (%) (1 µM)” value in assay [2] worked out at 71%.
Take `C[C@]12CCCN1N(Cc1cccc(Cl)c1F)C(=O)C(C(=O)Nc1cc(F)c(Br)c(F)c1)=C2O` [Example 196, (4aR)-N-(4-Bromo-3,5-difluorophenyl)-1-[(3-chloro-2-fluorophenyl)methyl]-4-hydroxy-4a-methyl-2-oxo-6,7-dihydro-5H-pyrrolo[1,2-b]pyridazine-3-carboxamide]: the inhibition in vivo at 0.1 %, 0.1 % in feed in assay [1] came to 35%. In addition, the “Rate of uptake inhibition (%) (1 µM)” value in assay [2] amounted to 90%.

The values are drawn from patent publication EP2975030B1, “DIHYDROPYRIDAZINE-3,5-DIONE DERIVATIVE” (Chugai Seiyaku Kabushiki Kaisha, priority 2013, dated 2014).
